Laboratory results reported in patent US11318157B2, “6-6 bicyclic aromatic ring substituted nucleoside analogues for use as PRMT5 inhibitors” (Janssen Pharmaceutica NV, priority 2015, dated 2022).
Where two headings read alike, the source gives them in different places.

Tests used:
PRMT5-MEP50 enzyme [1] = target: T1, PRMT5-MEP50 enzyme (Homo sapiens, UniProt O14744); experiment: In vitro assay 1a: high throughput mass spectrometer assay of SAH formation, 10 nM enzyme, 60 min; type: biochemical; conditions: averaged values, PRMT5-MEP50, 10 nM enzyme, read-out: pIC50 Assay 1a (converted)
T1 construct: One virus expresses full length human PRMT5 with Flag-tag at N-terminus; Flag (N); purchased Charles River (Argenta); host or cells: insect cells (Sf9), baculovirus co-infection
T1 sequence (O14744 whole entry): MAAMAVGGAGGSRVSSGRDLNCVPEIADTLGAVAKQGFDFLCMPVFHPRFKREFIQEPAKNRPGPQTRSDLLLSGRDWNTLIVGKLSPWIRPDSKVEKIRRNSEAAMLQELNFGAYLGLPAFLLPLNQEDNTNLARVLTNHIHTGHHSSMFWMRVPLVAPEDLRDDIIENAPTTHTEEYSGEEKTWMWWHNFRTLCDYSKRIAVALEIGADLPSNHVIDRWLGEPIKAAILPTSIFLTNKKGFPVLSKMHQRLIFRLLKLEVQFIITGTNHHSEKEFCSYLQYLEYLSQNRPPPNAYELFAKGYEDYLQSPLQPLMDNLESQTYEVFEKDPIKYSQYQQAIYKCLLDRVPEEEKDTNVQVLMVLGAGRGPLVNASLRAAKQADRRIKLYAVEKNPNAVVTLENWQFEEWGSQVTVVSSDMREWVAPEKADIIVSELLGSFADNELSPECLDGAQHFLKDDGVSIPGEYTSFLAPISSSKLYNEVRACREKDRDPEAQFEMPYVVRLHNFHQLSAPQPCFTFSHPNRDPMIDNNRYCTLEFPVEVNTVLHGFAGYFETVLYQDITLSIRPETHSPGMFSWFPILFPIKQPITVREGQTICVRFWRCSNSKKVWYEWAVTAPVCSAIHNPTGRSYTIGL
T1 sequence (Q9BQA1 whole entry partner): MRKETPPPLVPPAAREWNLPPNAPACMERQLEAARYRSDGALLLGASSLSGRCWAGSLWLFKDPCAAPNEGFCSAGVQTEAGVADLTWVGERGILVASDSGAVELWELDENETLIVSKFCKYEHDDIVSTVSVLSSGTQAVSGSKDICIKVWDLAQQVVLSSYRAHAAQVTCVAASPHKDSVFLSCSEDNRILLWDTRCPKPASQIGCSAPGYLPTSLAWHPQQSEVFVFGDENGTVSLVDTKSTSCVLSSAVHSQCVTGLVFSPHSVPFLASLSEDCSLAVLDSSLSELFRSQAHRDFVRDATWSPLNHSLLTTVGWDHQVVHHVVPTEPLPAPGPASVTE
Text: Experimental Procedures In Vitro Assay (Assay 1a and 1b)
PRMT5-MEP50 enzyme was purchased from Charles River (Argenta). The enzyme complex was produced in insect cells (Sf9) infected simultaneously with two baculoviruses. One virus expresses full length human PRMT5 with Flag-tag at N-terminus, the second virus expresses full length MEP50 with His6-TEV cleavage at N-terminus. The protein was affinity purified using anti-Flag (M2) beads eluted with 3×FLAG peptide, followed by His-Select eluted with 0.5M imidazole. Eluted protein was then dialysed against tris-buffered saline (TBS) (pH 8.0) containing 20% glycerol and 3 mM dithiothreitol (DTT).
Full-length untagged human recombinant histone H2A (residues 1-130, Genbank Accession #NM_021052 MW=14.1 kDa) expressed in E. coli was purchased from Reaction Biology Corporation, Cat #HMT-11-146. Reagents used for making reaction buffer or stopping reaction were purchased including Tris base (Sigma Cat #T-1503), NaCl (Sigma Cat #RGF-3270), MgCl2 (Sigma Cat #M0250), DTTI (Invitrogen Cat #15508-013) and Formic Acid (Riedel deHaen, Cat #33015)
High Throughput Mass Spectrometer Assay
PRMT5 catalyzes the sequential methylations of the terminal nitrogen atoms on the guanidine groups of arginine residues within proteins using co-substrate S-adenosyl-L-methionine (AdoMet, SAM), forming mono-methyl (MMA), symmetric-dimethyl arginine (sDMA) and S-adenosyl-L-homocysteine (AdoHcy, SAH). The enzyme activity was determined by following the product SAH formation using high throughput mass spectrometry (Agilent Rapidfire 300 System coupled to a Sciex 4000 series QTrap® triple-quad MS/MS). The reaction buffer was 20 mM Tris-HCl, pH 8.5, 50 mM NaCl, 5 mM MgCl2 and 1 mM DTT. The reaction activity was stopped using 1% formic acid (final concentration).
The IC50 Studies were performed using eleven point dosing series made for each compound by serially diluted 1:2 in dimethyl sulfoxide (DMSO), with point 12 being a DMSO control. Compounds were first spotted to plates, and followed by addition of 2 μM SAM and 0.6 μM H2A (histone H2A) solution mixture. The same volume of enzyme solution was added to initiate the enzymatic reactions. The final concentrations of the reaction are at 1 μM SAM, 0.3 μM H2A and 10 nM enzyme (assay 1a) or 1.25 nM enzyme (assay 1b). The reaction was incubated at 30° C. for 60 minutes (min) when 10 nM enzyme was used and for 120 min when 1.25 nM enzyme was used. Subsequently, the reaction was quenched by addition of formic acid to a final concentration of 1%. The inhibitions of SAH formation in the presence of compounds were calculated as a percentage of the control relative to the uninhibited reaction as a function of inhibitor concentration. The data were fit as follows: Y=Bottom+(Top−Bottom)/(1+10^((log IC50−X)*h))
where IC50 is the inhibitor concentration (same unit as X) at 50% inhibition and h is the Hill slope. Y is percent of inhibition, X is log of compound concentration. Bottom and Top are the plateaus in same units as Y.

PRMT5-MEP50 enzyme [2] = target: T1, PRMT5-MEP50 enzyme; experiment: In vitro assay 1b: high throughput mass spectrometer assay of SAH formation, 1.25 nM enzyme, 120 min; type: biochemical; conditions: averaged values; PRMT5-MEP50, 1.25 nM enzyme, 120 min; read-out: pIC50 Assay 1b (converted)
Procedure, shortened: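 SAH product measured by RapidFire mass spectrometry after formic acid stop; IC50 from 11-point 1:2 dilutions, four-parameter fit. Reactions at 30 °C in 20 mM Tris pH 8.5 with 1 μM SAM, 0.3 μM H2A: assay 1a 10 nM PRMT5-MEP50, 60 min; assay 1b 1.25 nM, 120 min.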

[3] = test system: nuclear symmetric Arginine dimethylation in A549 cells; experiment: PD assay (assay 2): inhibition of nuclear symmetric Arginine dimethylation (SYM10 immunohistochemistry), 48 h; type: cell-based; conditions: Homo sapiens
Procedure, shortened: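 Cells seeded at 400/well overnight, then treated 48 h at 37 °C, final DMSO 0.2%. Fixed and stained with SYM10 antibody plus Alexa 488 secondary, Hoechst and CellMask, then imaged on Opera. Normalized to DMSO (high) and 10 μM reference compound (low); averaged pIC50 reported.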

[4] = A549, averaged values, PD assay, A549 cells, symmetric Arginine dimethylation, read-out: pIC50 Assay 2 (converted)

| SMILES | IC50 (PRMT5-MEP50 enzyme [1]) [nM] | IC50 (PRMT5-MEP50 enzyme [2]) [nM] | IC50 [3, 4] [nM] | IC50 ([3]; A549, read-out: pIC50 Assay 2 (converted)) [nM] |
| --- | --- | --- | --- | --- |
| Nc1ncnc2c1ccn2[C@@H]1O[C@H](COc2cccc3cnccc23)[C@@H](O)[C@H]1O [Compound 6] | 3160 | 5010 | > 10000 | – |
| Nc1ncnc2c1ccn2[C@@H]1O[C@H](COc2cccc3cccnc23)[C@@H](O)[C@H]1O [Compound 8] | 6310 | 12600 | > 10000 | – |
| Nc1ncnc2c1ccn2[C@@H]1O[C@H](COc2ccc3cnccc3c2)[C@@H](O)[C@H]1O [Compound 12] | 1580 | 3980 | > 10000 | – |
| Nc1ncnc2c1ccn2[C@@H]1O[C@H](COc2ccc3ccncc3c2)[C@@H](O)[C@H]1O [Compound 13] | 794 | 2000 | 15800 | – |
| Nc1ncnc2c1ccn2[C@@H]1O[C@H](COc2ccc3cccnc3n2)[C@@H](O)[C@H]1O [Compound 17] | 1000 | 1580 | 7940 | – |
| COc1ccc2ccc(OC[C@H]3O[C@@H](n4ccc5c(N)ncnc54)[C@H](O)[C@@H]3O)cc2n1 [Compound 19] | 1580 | 3160 | > 20000 | – |
| CN(C)c1ccc2ccc(OC[C@H]3O[C@@H](n4ccc5c(N)ncnc54)[C@H](O)[C@@H]3O)cc2n1 [Compound 23] | 501 | 316 | – | 398 |
| COc1cc2c(Cl)c(C#N)cnc2cc1OC[C@H]1O[C@@H](n2ccc3c(N)ncnc32)[C@H](O)[C@@H]1O [Compound 30] | > 10000 | 39800 | > 10000 | – |
| COc1cc2c(N)c(C#N)cnc2cc1OC[C@H]1O[C@@H](n2ccc3c(N)ncnc32)[C@H](O)[C@@H]1O [Compound 31] | 3160 | 3980 | > 20000 | – |
| O[C@@H]1[C@H](O)[C@@H](COc2ccc3c(Cl)ccnc3c2)O[C@H]1n1ccc2c(Cl)ncnc21 [Compound 34] | 7940 | > 100000 | > 20000 | – |
| Nc1nc(Cl)nc2c1ccn2[C@@H]1O[C@H](COc2ccc3cc(Br)cnc3c2)[C@@H](O)[C@H]1O [Compound 42] | 50.1 | 126 | 316 | – |
| Cc1nc(N)c2ccn([C@@H]3O[C@H](COc4ccc5cc(Br)cnc5c4)[C@@H](O)[C@H]3O)c2n1 [Compound 43] | 79.4 | 200 | 316 | – |
| Nc1ncnc2c1c(F)cn2[C@@H]1O[C@H](COc2ccc3cccnc3c2)[C@@H](O)[C@H]1O [Compound 44] | 63.1 | 126 | 251 | – |
| Nc1ncnc2c1ccn2[C@@H]1C[C@H](COc2ccc3cc(Br)cnc3c2)[C@@H](O)[C@H]1O [Compound 47] | 25.1 | 63.1 | 50.1 | – |
| Nc1ncnc2c1ccn2[C@@H]1O[C@H](CNc2ccc3cccnc3c2)[C@@H](O)[C@H]1O [Compound 49] | 3.98 | 10 | 10 | – |
| Nc1ncnc2c1ccn2[C@@H]1O[C@H](CNc2ccc3cc(Cl)cnc3c2)[C@@H](O)[C@H]1O [Compound 50] | 10 | 7.94 | 25.1 | – |
| Nc1ncnc2c1ccn2[C@@H]1O[C@H](CNc2ccc3cc(Br)cnc3c2)[C@@H](O)[C@H]1O [Compound 51] | 10 | 15.8 | ~15.5 | – |

Continued, in another order:

| IC50 (PRMT5-MEP50 enzyme [1]) [nM] | IC50 (PRMT5-MEP50 enzyme [2]) [nM] | IC50 [3, 4] [nM] | SMILES | IC50 ([3]; A549, read-out: pIC50 Assay 2 (converted)) [nM] |
| --- | --- | --- | --- | --- |
| 2000 | 5010 | > 10000 | Nc1ncnc2c1ccn2[C@@H]1O[C@H](COc2cccc3ncccc23)[C@@H](O)[C@H]1O [Compound 5] | – |
| 3160 | 3980 | ~7080 | Nc1ncnc2c1ccn2[C@@H]1O[C@H](COc2cnc3ccccc3c2)[C@@H](O)[C@H]1O [Compound 10] | – |
| 3160 | 7940 | > 10000 | Nc1ncnc2c1ccn2[C@@H]1O[C@H](COc2ccc3ncccc3c2)[C@@H](O)[C@H]1O [Compound 11] | – |
| 251 | 1260 | 5010 | Nc1ncnc2c1ccn2[C@@H]1O[C@H](COc2ccc3cncnc3c2)[C@@H](O)[C@H]1O [Compound 16] | – |
| 79.4 | 316 | ~10000 | Nc1ncnc2c1ccn2[C@@H]1O[C@H](COc2ccc3ccc(O)nc3c2)[C@@H](O)[C@H]1O [Compound 18] | – |
| 1260 | 1580 | 5010 | Cc1ccc2ccc(OC[C@H]3O[C@@H](n4ccc5c(N)ncnc54)[C@H](O)[C@@H]3O)cc2n1 [Compound 21] | – |
| 6310 | 25100 | ~17800 | Nc1ncnc2c1ccn2[C@@H]1O[C@H](COc2ccc3ccc(C(F)(F)F)nc3c2)[C@@H](O)[C@H]1O [Compound 22] | – |
| 39.8 | 126 | 794 | Nc1ncnc2c1ccn2[C@@H]1O[C@H](COc2ccc3cc(F)cnc3c2)[C@@H](O)[C@H]1O [Compound 24] | – |
| 12.6 | 39.8 | 126 | Nc1ncnc2c1ccn2[C@@H]1O[C@H](COc2ccc3cc(Cl)cnc3c2)[C@@H](O)[C@H]1O [Compound 25] | – |
| 63.1 | 200 | ~251 | COc1cnc2cc(OC[C@H]3O[C@@H](n4ccc5c(N)ncnc54)[C@H](O)[C@@H]3O)ccc2c1 [Compound 26] | – |
| 398 | 794 | ~1150 | Nc1ncnc2c1ccn2[C@@H]1O[C@H](COc2ccc3cc(C(F)(F)F)cnc3c2)[C@@H](O)[C@H]1O [Compound 27] | – |
| > 10000 | 7940 | > 20000 | N#Cc1cnc2cc(OC[C@H]3O[C@@H](n4ccc5c(N)ncnc54)[C@H](O)[C@@H]3O)ccc2c1Cl [Compound 28] | – |
| 501 | 1260 | 15800 | N#Cc1cnc2cc(OC[C@H]3O[C@@H](n4ccc5c(N)ncnc54)[C@H](O)[C@@H]3O)ccc2c1N [Compound 29] | – |
| 39.8 | 126 | 501 | Cc1ccnc2cc(OC[C@H]3O[C@@H](n4ccc5c(N)ncnc54)[C@H](O)[C@@H]3O)ccc12 [Compound 32] | – |
| 158 | 794 | 501 | Nc1ncnc2c1ccn2[C@@H]1O[C@H](COc2ccc3c(Cl)ccnc3c2)[C@@H](O)[C@H]1O [Compound 33] | – |
| 398 | 794 | 398 | Nc1ncnc2c1ccn2[C@@H]1O[C@H](COc2ccc3c(Cl)c(Cl)cnc3c2)[C@@H](O)[C@H]1O [Compound 35] | – |
| 1000 | 631 | 5010 | Nc1ncnc2c1ccn2[C@@H]1O[C@H](COc2cc(C(F)(F)F)c3cccnc3c2)[C@@H](O)[C@H]1O [Compound 37] | – |
| 200 | 398 | 794 | Nc1ncnc2c1ccn2[C@@H]1O[C@H](COc2cc3ncccc3cc2C(F)(F)F)[C@@H](O)[C@H]1O [Compound 38] | – |
| 2510 | 1580 | ~12000 | Nc1ncnc2c1ccn2[C@@H]1O[C@H](COc2ccc3cccnc3c2I)[C@@H](O)[C@H]1O [Compound 40] | – |
| 6310 | 10000 | > 10000 | Nc1ncnc2c1ccn2[C@@H]1O[C@H](COc2ccc3cccnc3c2Cl)[C@@H](O)[C@H]1O [Compound 41] | – |
